Experimental data reported in paper PMC11845477, “Exploring the principles behind antibiotics with limited resistance” (Nature Communications, 2025).
Like-named read-outs stand apart in the source and are kept apart here.

Columns and labels:
Test in all cases: Frequency-of-resistance (FoR) assay, relative MIC of mutants
[1] = test system: A. baumannii ATCC 17978 (SEN) and A. baumannii ATCC BAA-1605 (MDR); format: cell-based, Acinetobacter baumannii; conditions: for MIC: Acinetobacter baumannii
Description: (§1) The susceptibility of antibiotics to resistance development was evaluated in two strains of each bacterial species: a multidrug-resistant strain and an antibiotic-sensitive strain of Escherichia coli, Klebsiella pneumoniae, Acinetobacter baumannii, and Pseudomonas aeruginosa. To explore first-step resistance, we previously used a standard protocol for spontaneous frequency-of-resistance analysis (FoR assay) at multiple concentrations of each antibiotic[10],[28],[31]–[33]. […] For all other combinations, approximately 10^10 bacterial cells were exposed to one of each antibiotic on agar plates for two days at concentrations where the given strain is susceptible. We examined resistance levels by contrasting the minimum inhibitory concentration (MICs) of the mutated strains to the original wild-type bacterial strain (i.e., relative MIC).
(§2) To estimate the frequency of spontaneous mutations that confer resistance in a microbial population, we conducted a frequency of resistance (FoR) assay following established protocols[10],[31]–[33]. […] Prior to plating, bacteria were grown overnight in MHB medium at 37 °C and 250 RPM, then centrifuged and washed in MHB. All experiments were performed in triplicate, and plates were incubated at 37 °C for 48 hours. Total colony-forming units (CFUs) were determined by plating appropriate dilutions onto antibiotic-free MHB agar. Resistance frequencies were calculated by dividing the number of resistant colonies by the initial viable cell count. From the plates with the highest antibiotic concentration, ten colonies were selected for MIC determination and whole-genome sequencing.
(§3) A robotic liquid handling system was used to automatically prepare a 11 to 16-step serial dilution in 384-well microtiter plates (Greiner). A final concentration of 5 × 10^5 bacterial cells per mL were inoculated into each well containing 60 µL MHB medium. Bacterial cultures were incubated at 37 °C with continuous shaking (Infors shaker, 900 rpm with 3 mm throw) for 18 hours (2 replicates from each). Cell growth was monitored by measuring the optical density (OD600 values, using Biotek Synergy microplate reader). MIC was defined as the antibiotic concentration of complete growth inhibition (i.e., OD600 < 0.05). Relative MIC was calculated as follows:1 relativeMIC=MICevolved/MICancestor […]
(§4) Supplementary Figure 3. Resistance levels following the frequency of resistance assay across bacterial strains. The level of resistance was measured as the fold change in relative MIC between evolved and ancestral strains. Data are grouped by bacterial strain (A. baumannii (AB), E. coli (EC), K. pneumoniae (KP), and P. aeruginosa (PA)) and categorized as either multidrug-resistant (MDR) or sensitive (SEN). Each data point represents a laboratory evolved line, and boxplots show the median, first and third quartiles, with whiskers indicating the 5th and 95th percentiles. […]
(§5) analysis was performed using two-sided Dunn’s post-hoc test with Benjamini-Hochberg correction for multiple comparisons (**/ * indicates p < 0.01/ 0.05). For detailed information on antibiotic and bacterial species, see Supplementary Table 1. For mode of action groups, refer to Table 1. Source data are provided as a Source Data file.

[2] = test system: K. pneumoniae ATCC 10031 (SEN) and K. pneumoniae ATCC 700603 (MDR); format: cell-based, Klebsiella pneumoniae; conditions: for MIC: Klebsiella pneumoniae
Description: as §1, §2, §3, §4, §5

[3] = test system: E. coli ATCC 25922 (SEN) and E. coli NCTC13846 (MDR); format: cell-based, Escherichia coli; conditions: for MIC: Escherichia coli
Description: as §1, §2, §3, §4, §5

[4] = Acinetobacter baumannii ATCC 17978 (AB-SEN), evolved line 1 versus ancestor
[5] = Acinetobacter baumannii ATCC 17978 (AB-SEN), evolved line 2 versus ancestor
[6] = Acinetobacter baumannii ATCC 17978 (AB-SEN), evolved line 3 versus ancestor
[7] = read-out: MIC of evolved line, Acinetobacter baumannii ATCC 17978 (AB-SEN), evolved line 1
[8] = read-out: MIC of evolved line, Acinetobacter baumannii ATCC 17978 (AB-SEN), evolved line 2
[9] = read-out: MIC of evolved line, Acinetobacter baumannii ATCC 17978 (AB-SEN), evolved line 3
[10] = Klebsiella pneumoniae ATCC 10031 (KP-SEN), evolved line 1 versus ancestor
[11] = Klebsiella pneumoniae ATCC 10031 (KP-SEN), evolved line 2 versus ancestor
[12] = Klebsiella pneumoniae ATCC 10031 (KP-SEN), evolved line 3 versus ancestor
[13] = Klebsiella pneumoniae ATCC 700603 (KP-MDR), evolved line 1 versus ancestor
[14] = Klebsiella pneumoniae ATCC 700603 (KP-MDR), evolved line 2 versus ancestor
[15] = Klebsiella pneumoniae ATCC 700603 (KP-MDR), evolved line 3 versus ancestor
[16] = read-out: MIC of evolved line, Klebsiella pneumoniae ATCC 10031 (KP-SEN), evolved line 1
[17] = read-out: MIC of evolved line, Klebsiella pneumoniae ATCC 10031 (KP-SEN), evolved line 2
[18] = read-out: MIC of evolved line, Klebsiella pneumoniae ATCC 700603 (KP-MDR), evolved line 1
[19] = read-out: MIC of evolved line, Klebsiella pneumoniae ATCC 700603 (KP-MDR), evolved line 2
[20] = Escherichia coli ATCC 25922 (EC-SEN), evolved line 1 versus ancestor
[21] = Escherichia coli ATCC 25922 (EC-SEN), evolved line 2 versus ancestor
[22] = Escherichia coli ATCC 25922 (EC-SEN), evolved line 3 versus ancestor
[23] = read-out: MIC of evolved line, Klebsiella pneumoniae ATCC 10031 (KP-SEN), evolved line 3
[24] = read-out: MIC of evolved line, Klebsiella pneumoniae ATCC 700603 (KP-MDR), evolved line 3
[25] = read-out: MIC of evolved line, Escherichia coli ATCC 25922 (EC-SEN), evolved line 1
[26] = read-out: MIC of evolved line, Escherichia coli ATCC 25922 (EC-SEN), evolved line 2
[27] = read-out: MIC of evolved line, Escherichia coli ATCC 25922 (EC-SEN), evolved line 3
[28] = E. coli NCTC 13846 (EC-MDR), evolved line 1, evolved vs ancestor
[29] = E. coli NCTC 13846 (EC-MDR), evolved line 2, evolved vs ancestor
[30] = E. coli NCTC 13846 (EC-MDR), evolved line 3, evolved vs ancestor
[31] = read-out: MIC of evolved line, E. coli NCTC 13846 (EC-MDR), evolved line 1
[32] = read-out: MIC of evolved line, E. coli NCTC 13846 (EC-MDR), evolved line 3
[33] = read-out: MIC of evolved line, E. coli NCTC 13846 (EC-MDR), evolved line 2

Row | Compound | Relative MIC [1, 4] | Relative MIC [1, 5] | Relative MIC [1, 6] | MIC [1, 7] [µg/mL] | MIC [1, 8] [µg/mL] | MIC [1, 9] [µg/mL] | Relative MIC [2, 10] | Relative MIC [2, 11] | Relative MIC [2, 12] | MIC [2, 16] [µg/mL] | MIC [2, 17] [µg/mL] | MIC [2, 18] [µg/mL] | MIC [2, 19] [µg/mL] | Relative MIC [3, 20] | Relative MIC [3, 21] | Relative MIC [3, 22] | MIC [2, 23] [µg/mL] | MIC [2, 24] [µg/mL] | MIC [3, 25] [µg/mL] | MIC [3, 26] [µg/mL] | other results
1 | CN[C@@H]1[C@@H](O[C@H]2O[C@H](CO)[C@@H](N)[C@H](O)[C@H]2O)OC2C[C@@H](N)[C@@H](O[C@H]3[C@H](O)[C@@H](O)[C@H](N)C[C@@H]3N)OC2[C@@H]1O (stereo partly drawn) [Apramycin] | 8 | 16 | 8 | 32 | 64 | 32 | 8 | 8 | 2 | 16 | 16 | 8 | 8 | – | – | – | – | – | – | – | Relative MIC [2, 13]: 2; Relative MIC [2, 14]: 2; Relative MIC [2, 15]: 1
2 | Nc1nc(-n2cc(C(=O)O)c(=O)c3cc(F)c(N4CC(O)C4)c(Cl)c32)c(F)cc1F [Delafloxacin] | 8 | 4 | 8 | 0.5 | 0.25 | 0.5 | 32 | 64 | 32 | 0.0625 | 0.125 | 4 | 4 | 1 | 1 | 1 | 0.0625 | 4 | – | – | Relative MIC [2, 13]: 4; Relative MIC [2, 14]: 4; Relative MIC [2, 15]: 4
3 | C[C@H]1c2cccc(O)c2C(=O)C2=C(O)[C@]3(O)C(=O)C(C(N)=O)=C(O)[C@@H](N(C)C)[C@@H]3[C@@H](O)[C@@H]21 [Doxycycline] | 1 | 1 | 1 | – | – | – | 4 | 4 | 2 | 1 | 1 | – | – | 2 | 4 | 2 | 0.5 | – | 2 | 4 | MIC [3, 27]: 2 µg/mL
4 | CN(C)[C@@H]1C(O)=C(C(N)=O)C(=O)[C@@]2(O)C(O)=C3C(=O)c4c(O)c(NC(=O)CN5CCCC5)cc(F)c4C[C@H]3C[C@@H]12 [Eravacycline] | 8 | 16 | 8 | 0.5 | 1 | 0.5 | 16 | 16 | 16 | 0.5 | 0.5 | 32 | 32 | 2 | 1 | 2 | 0.5 | 32 | 0.25 | 0.125 | Relative MIC ([1]; Acinetobacter baumannii ATCC BAA 1605 (AB-MDR), evolved line 1 versus ancestor): 4; Relative MIC ([1]; Acinetobacter baumannii ATCC BAA 1605 (AB-MDR), evolved line 2 versus ancestor): 4; Relative MIC ([1]; Acinetobacter baumannii ATCC BAA 1605 (AB-MDR), evolved line 3 versus ancestor): 8; MIC ([1]; read-out: MIC of evolved line, Acinetobacter baumannii ATCC BAA 1605 (AB-MDR), evolved line 1): 8 µg/mL; MIC ([1]; read-out: MIC of evolved line, Acinetobacter baumannii ATCC BAA 1605 (AB-MDR), evolved line 2): 8 µg/mL; MIC ([1]; read-out: MIC of evolved line, Acinetobacter baumannii ATCC BAA 1605 (AB-MDR), evolved line 3): 16 µg/mL; Relative MIC [3, 28]: 2; Relative MIC [3, 29]: 1; Relative MIC [3, 30]: 2; MIC [3, 31]: 2 µg/mL; MIC [3, 32]: 2 µg/mL; MIC [3, 27]: 0.25 µg/mL; Relative MIC [2, 13]: 8; Relative MIC [2, 14]: 8; Relative MIC [2, 15]: 8
5 | CNC(C)C1CCC(N)C(OC2C(N)CC(N)C(OC3OCC(C)(O)C(NC)C3O)C2O)O1 (stereo not drawn) [Gentamicin] | 32 | 16 | 64 | 16 | 8 | 32 | 2 | 2 | 32 | 0.5 | 0.5 | – | – | 16 | 16 | 8 | 8 | – | 16 | 16 | Relative MIC [3, 28]: 8; Relative MIC [3, 29]: 4; Relative MIC [3, 30]: 4; MIC [3, 31]: 8 µg/mL; MIC [3, 33]: 4 µg/mL; MIC [3, 32]: 4 µg/mL; MIC [3, 27]: 8 µg/mL
6 | C[C@@H](O)[C@H]1C(=O)N2C(C(=O)O)=C(S[C@@H]3CN[C@H](C(=O)N(C)C)C3)[C@H](C)[C@H]12 [Meropenem] | – | – | – | – | – | – | – | – | – | 0.0156 | 0.0156 | 2 | 0.0625 | – | – | – | 0.0156 | 1 | 0.0156 | 0.0156 | MIC [3, 33]: 0.0156 µg/mL; MIC [3, 27]: 0.0156 µg/mL
7 | COc1c(N2C[C@@H]3CCCN[C@@H]3C2)c(F)cc2c(=O)c(C(=O)O)cn(C3CC3)c12 [Moxifloxacin] | – | – | – | 0.5 | 2 | 1 | – | – | – | 0.25 | – | 4 | 4 | – | – | – | – | 4 | – | – | –
8 | C[C@@H]1CN2c3c(cc4c(N5C(=O)OC[C@@H]5C)noc4c3F)CC3(C(=O)NC(=O)NC3=O)[C@H]2[C@H](C)O1 [Zoliflodacin] | – | – | – | – | – | – | 32 | 128 | 128 | 4 | 16 | – | – | 8 | 8 | 8 | 16 | – | – | 16 | –
9 | Tridecaptin M152-P3 | – | – | – | – | – | – | – | – | – | – | – | – | – | – | – | – | – | – | – | – | MIC of evolved line ([3]; Escherichia coli ATCC 25922 (EC-SEN), evolved line 1): 4 µg/mL; MIC of evolved line ([3]; Escherichia coli ATCC 25922 (EC-SEN), evolved line 2): 4 µg/mL; MIC of evolved line ([3]; Escherichia coli ATCC 25922 (EC-SEN), evolved line 3): 4 µg/mL; MIC of evolved line ([2]; Klebsiella pneumoniae ATCC 10031 (KP-SEN), evolved line 1): 16 µg/mL; MIC of evolved line ([2]; Klebsiella pneumoniae ATCC 10031 (KP-SEN), evolved line 2): 8 µg/mL; MIC of evolved line ([2]; Klebsiella pneumoniae ATCC 10031 (KP-SEN), evolved line 3): 16 µg/mL
